Test results as given in patent publication US20110177156A1, “Sterol-Modified Amphiphilic Lipids” (priority 2007, published 2011).
Where two headings read alike, the source gives them in different places.

Experiments:
phospholipase A2 (PLA2) [1] = molecular target: T1, phospholipase A2 (PLA2) (Bos taurus, UniProt P00593); experiment: Drug release by phospholipase A2 (bovine); assay type: biochemical; conditions: bovine PLA2, 37° C., pH 8.8, Triton X-100
T1 construct: purchased Aldrich-Sigma
Excerpt: All PLA2s were from Aldrich-Sigma. […] The flask was placed under high vacuum overnight.

phospholipase A2 (PLA2) [2] = conditions: for release of all-trans retinoic acid from SML7a: pH 8.8, Triton X-100
Procedure: Retinoic acid was used as the model drug for the investigation of enzyme triggered drug release. The release of all-trans retinoic acid from SML7a (1-cholesteryl-2-all-trans-retinoyl-sn-glycerophosphocholine) was evaluated with phospholipase A2 (PLA2) from a variety of sources including bovine, naja mossambica, and streptomyces vialaceoruber. All PLA2s were from Aldrich-Sigma. A chloroform solution of SML7a (50 μmol) in 50 mL round-bottom flask was evaporated by the rotavapor. The flask was placed under high vacuum overnight. The lipid film was hydrated in 10 mL pH 8.8 buffer containing 20 mM Triton X-100, 10 mM CaCl2, 10 mM HEPES, and 50 mM KCl. […] Aliquots of the solution (250 μL) were preincubated at 37° C. for 10 minutes, then used for the PLA2 assay. Aliquots of PLA2 solution (25 units in 250 μL pH 8.8 buffer of 10 mM HEPES, and 50 mM KCl) were preincubated at 37° C. for 10 minutes, and mixed with the aliquots of pre-warmed solution of SML7a. At different time point, the hydrolysis samples were analyzed by TLC, and quantified by densimeter.

T1 sequence (P00593 23-145): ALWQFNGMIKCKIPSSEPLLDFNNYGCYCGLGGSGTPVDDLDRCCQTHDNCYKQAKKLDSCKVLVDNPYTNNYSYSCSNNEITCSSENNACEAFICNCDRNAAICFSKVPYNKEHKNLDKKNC

**Q.** How did the “release of all-trans retinoic acid from SML7a” value (shortened to “release”) (phospholipase A2 (PLA2) [1]) turn out when “1-cholesteryl-2-all-trans-retinoyl-sn-glycerophosphocholine [SML7a]” was run?
**A.** completely release

**Q.** And the “release” value (phospholipase A2 (PLA2) [2]; naja mossambica PLA2, 37° C.)?
**A.** completely release

**Q.** And the “relative activity of the PLA2 on SML7a” value (phospholipase A2 (PLA2) [2]; naja mossambica PLA2 compared with the two other PLA2)?
**A.** highest activity

**Q.** What about the “release” value (phospholipase A2 (PLA2) [2]; streptomyces vialaceoruber PLA2, 37° C.) of the same substance?
**A.** completely release
